Several values for one entry are separate records, joined by “and”; a condition that tells them apart may be missing. Identical values can stand only once.
Assays:
[1] = target: T1, hyperactive mutant BKCa channels (hSlo G803D/N806K) stably expressed in AD 293 cells (Homo sapiens, UniProt Q12791, G856D/N859K); experiment: Cell-based fluorescence assay (FluxOR Potassium Ion Channel Assay) of BKCa channel activation; details: compounds at 5 μM; n=3; vehicle 0.26
T1 construct: expressed in transfected cells

[2] = target: T1, hyperactive mutant BKCa channels (hSlo G803D/N806K) stably expressed in AD 293 cells; experiment: as above; parameters: key to Channel activity increase for 80 s (ΔRFU) at 6 μM: ratio of ΔRFU (RFU at 100 s − 20 s) to the same ΔRFU for vehicle; details: for Initial velocity of channel activation for 4 s (vi) at 6 μM: first 4 s after channel stimulation; for Channel activity increase for 80 s (ΔRFU) at 6 μM: normalized by vehicle; for activation effect on the BKCa channels at a single concentration: 3 μM; for EC50: fit of dose-response curve of initial rates, read-out: Apparent EC50 based on vi
Procedure: AD 293 cells, which are derivatives of the commonly used HEK 293 cell line and stably express hyperactive mutant BKCa channels (hSlo G803D/N806K) to sensitively detect the effect (Lee et al., 2013), were cultured in Dulbecco' modified Eagle medium (Hyclone, Logan, Utah, […]) supplemented with 10% fetal bovine serum, and selected with 1 mg/mL Geneticin (Gibco, Amarillo, TX, USA). 20,000 cells per well were seeded on a 96-well clear-bottom black plate (Corning, New York, NY, USA) coated with poly-D-lysine (Gibco). BKCa channel activity was measured using the cell-based fluorescence assay, FluxOR Potassium Ion Channel Assay (Thermo Fisher Scientific, Waltham, MA, USA). Experimental procedures were performed according to the manufacturer's instructions. The cells were treated with test compounds dissolved in assay buffer for 15 minutes. Fluorescence was measured using a FlexStation3 multimode microplate reader (Molecular Devices, Silicon Valley, CA, USA) and SoftMax Pro (Molecular Devices). Excitation and emission wavelengths were set to 485 nm and 528 nm, respectively. Fluorescence signals were acquired every 2 seconds for 120 seconds and normalized by the relative fluorescence unit (RFU). The efficacy of a channel activator was determined by analyzing changes (ΔRFU) in the RFU for 80 seconds after channel stimulation.
Activation effects of the synthesized compounds on BKCa channels were evaluated using cell-based fluorescence assay. NS11021 was used as the positive control. The effects were determined based on the initial rate (vi) of channel activation and the apparent EC50 value obtained from fitting data of the dose-response curve. Here, Vi means change values for 4 seconds at the start of channel opening (vi={RFU(t=24 s)−RFU(t=20 s)}/4 s). […]

T1 sequence (Q12791 whole entry G856D/N859K): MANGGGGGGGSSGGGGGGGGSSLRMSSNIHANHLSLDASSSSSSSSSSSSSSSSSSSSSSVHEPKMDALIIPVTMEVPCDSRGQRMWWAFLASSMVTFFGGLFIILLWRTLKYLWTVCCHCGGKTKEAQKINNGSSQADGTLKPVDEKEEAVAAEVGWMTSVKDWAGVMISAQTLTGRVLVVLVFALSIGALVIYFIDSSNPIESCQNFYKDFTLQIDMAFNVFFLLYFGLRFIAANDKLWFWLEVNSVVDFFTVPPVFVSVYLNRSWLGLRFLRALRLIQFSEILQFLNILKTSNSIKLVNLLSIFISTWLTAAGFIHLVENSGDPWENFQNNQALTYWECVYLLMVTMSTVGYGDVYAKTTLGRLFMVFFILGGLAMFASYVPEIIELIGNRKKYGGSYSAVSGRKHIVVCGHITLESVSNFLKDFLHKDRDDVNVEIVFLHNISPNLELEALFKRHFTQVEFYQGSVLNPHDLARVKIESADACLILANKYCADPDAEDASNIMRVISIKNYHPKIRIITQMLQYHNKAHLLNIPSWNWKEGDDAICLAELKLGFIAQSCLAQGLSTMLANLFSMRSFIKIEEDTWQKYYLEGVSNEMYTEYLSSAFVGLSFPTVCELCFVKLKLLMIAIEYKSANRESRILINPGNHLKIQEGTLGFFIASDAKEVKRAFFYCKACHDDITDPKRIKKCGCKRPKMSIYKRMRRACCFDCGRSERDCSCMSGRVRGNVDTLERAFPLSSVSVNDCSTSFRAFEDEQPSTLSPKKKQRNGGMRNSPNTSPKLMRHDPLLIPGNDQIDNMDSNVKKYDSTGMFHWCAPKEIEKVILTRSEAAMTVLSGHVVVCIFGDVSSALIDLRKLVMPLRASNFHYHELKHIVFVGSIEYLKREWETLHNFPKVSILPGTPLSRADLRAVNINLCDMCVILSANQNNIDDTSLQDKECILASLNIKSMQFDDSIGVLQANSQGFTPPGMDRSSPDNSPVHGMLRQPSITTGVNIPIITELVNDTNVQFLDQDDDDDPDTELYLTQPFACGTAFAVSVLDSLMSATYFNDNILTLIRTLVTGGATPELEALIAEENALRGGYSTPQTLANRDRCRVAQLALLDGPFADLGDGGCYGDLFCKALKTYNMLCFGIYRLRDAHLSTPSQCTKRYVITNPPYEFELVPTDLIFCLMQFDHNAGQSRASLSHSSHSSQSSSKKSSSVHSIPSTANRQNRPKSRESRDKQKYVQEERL

| Activity (ΔRFU normalized by activities of LDD175) [1] | Initial velocity of channel activation for 4 s (vi) at 6 μM [2] | Channel activity increase for 80 s (ΔRFU) at 6 μM [2] | activation effect on the BKCa channels at a single concentration [2] | EC50 [2] | BKCa activity [2] | SMILES |
| --- | --- | --- | --- | --- | --- | --- |
| 0.82 |  |  |  |  |  | Cc1ccc2c(c1)c(=O)[nH]c1c(C(=O)Nc3ccccc3C)sc(=S)n12 [TTQC-11, 7-methyl-5-oxo-1-thioxo-N-(o-tolyl)-4,5-dihydro-1H-thiazolo[3,4-a]quinazoline-3-carboxamide] |
| 0.34 |  |  |  |  |  | CCc1ccc(NC(=O)c2sc(=S)n3c2[nH]c(=O)c2cc(Br)ccc23)cc1 [TTQC-32, 7-bromo-N-(4-ethylphenyl)-5-oxo-1-thioxo-4,5-dihydro-1H-thiazolo[3,4-a]quinazoline-3-carboxamide] |
|  | 0.26 s⁻¹ | 1.10 |  |  |  | O=C(NCc1ccccc1)c1sc(=S)n2c1[nH]c(=O)c1ccccc12 [Compound 5, N-benzyl-5-oxo-1-thioxo-4,5-dihydro-1H-thiazolo[3,4-a]quinazoline-3-carboxamide] |
| 0.62 |  |  |  |  |  | CCc1ccccc1NC(=O)c1sc(=S)n2c1[nH]c(=O)c1cc3c(cc12)OCO3 [TTQC-19, N-(2-ethylphenyl)-5-oxo-1-thioxo-4,5-dihydro-1H-[1,3]dioxolo[4,5-g]thiazolo[3,4-a]quinazoline-3-carboxamide] |
| 0.34 |  |  |  |  |  | COc1ccc(CNC(=O)c2sc(=S)n3c2[nH]c(=O)c2ccc(Cl)cc23)cc1 [TTQC-33, 8-chloro-N-(4-methoxybenzyl)-5-oxo-1-thioxo-4,5-dihydro-1H-thiazolo[3,4-a]quinazoline-3-carboxamide] |
|  | 1.63 s⁻¹ | 1.86 | significant activation effects | 14.9 µM and 14.3 µM |  | FC(F)(F)c1cc(NC(=S)Nc2ccc(Br)cc2-c2nn[nH]n2)cc(C(F)(F)F)c1 [NS11021, reference compound] |
|  | 0.38 s⁻¹ | 1.18 |  |  |  | O=C(Nc1ccccc1)c1sc(=S)n2c1[nH]c(=O)c1cc(Cl)ccc12 [Compound 106, 7-chloro-5-oxo-N-phenyl-1-thioxo-4,5-dihydro-1H-thiazolo[3,4-a]quinazoline-3-carboxamide] |
| 0.51 |  |  |  |  |  | COc1ccccc1NC(=O)c1sc(=S)n2c1[nH]c(=O)c1cc3c(cc12)OCO3 [TTQC-24, N-(2-methoxyphenyl)-5-oxo-1-thioxo-4,5-dihydro-1H-[1,3]dioxolo[4,5-g]thiazolo[3,4-a]quinazoline-3-carboxamide] |
|  | 0.32 s⁻¹ | 0.96 |  |  |  | NC(=O)c1sc(=S)n2c1[nH]c(=O)c1ccccc12 [Compound 4, 5-oxo-1-thioxo-4,5-dihydro-1H-thiazolo[3,4-a]quinazoline-3-carboxamide] |
|  |  |  | significant activation effects |  |  | C=C(C)[C@H](CC=C(C)C)Cc1c(O)cc(OC)c2c1O[C@H](c1ccc(O)cc1O)CC2=O [kurarinone, reference compound] |
|  | 0.42 s⁻¹ | 1.03 |  |  |  | O=C(Nc1ccccc1)c1sc(=S)n2c1[nH]c(=O)c1ccccc12 [Compound 101, 5-oxo-N-phenyl-1-thioxo-4,5-dihydro-1H-thiazolo[3,4-a]quinazoline-3-carboxamide] |
|  | 0.71 s⁻¹ | 1.41 |  |  |  | Cc1ccc(NC(=O)c2sc(=S)n3c2[nH]c(=O)c2cc(Br)ccc23)cc1 [Compound 203, 7-bromo-5-oxo-1-thioxo-N-(p-tolyl)-4,5-dihydro-1H-thiazolo[3,4-a]quinazoline-3-carboxamide] |
|  | 2.08 s⁻¹ | 2.28 |  | 17.3 µM |  | O=C(Nc1cc(C(F)(F)F)cc(C(F)(F)F)c1)c1sc(=S)n2c1[nH]c(=O)c1cc(Br)ccc12 [Compound 210, N-(3,5-bis(trifluoromethyl)phenyl)-7-bromo-5-oxo-1-thioxo-4,5-dihydro-1H-thiazolo[3,4-a]quinazoline-3-carboxamide] |
|  |  | 1.25 |  |  |  | O=C(Nc1ccccc1)c1sc(=S)n2c1[nH]c(=O)c1ccc(Br)cc12 [Compound 104, 8-bromo-5-oxo-N-phenyl-1-thioxo-4,5-dihydro-1H-thiazolo[3,4-a]quinazoline-3-carboxamide] |
|  | 0.23 s⁻¹ | 1.06 |  |  |  | Cc1ccc2c(=O)[nH]c3c(C(=O)Nc4ccccc4)sc(=S)n3c2c1 [Compound 102, 8-methyl-5-oxo-N-phenyl-1-thioxo-4,5-dihydro-1H-thiazolo[3,4-a]quinazoline-3-carboxamide] |
|  |  | 1.56 |  |  |  | O=C(Nc1ccccc1)c1sc(=S)n2c1[nH]c(=O)c1ccc(Cl)cc12 [Compound 103, 8-chloro-5-oxo-N-phenyl-1-thioxo-4,5-dihydro-1H-thiazolo[3,4-a]quinazoline-3-carboxamide] |
|  | 6.00 s⁻¹ | 3.35 |  | 6.6 µM |  | COc1cccc(NC(=O)c2sc(=S)n3c2[nH]c(=O)c2cc(Br)ccc23)c1 [Compound 204, 7-bromo-N-(3-methoxyphenyl)-5-oxo-1-thioxo-4,5-dihydro-1H-thiazolo[3,4-a]quinazoline-3-carboxamide] |
|  | 4.03 s⁻¹ | 4.88 |  | 11.2 µM |  | O=C(Nc1cccc(O)c1)c1sc(=S)n2c1[nH]c(=O)c1cc(Br)ccc12 [Compound 205, 7-bromo-N-(3-hydroxyphenyl)-5-oxo-1-thioxo-4,5-dihydro-1H-thiazolo[3,4-a]quinazoline-3-carboxamide] |
|  | 12.55 s⁻¹ | 2.85 |  | 1.14 µM | significant improvement | O=C(Nc1cccc(F)c1)c1sc(=S)n2c1[nH]c(=O)c1cc(Br)ccc12 [Compound 206, 7-bromo-N-(3-fluorophenyl)-5-oxo-1-thioxo-4,5-dihydro-1H-thiazolo[3,4-a]quinazoline-3-carboxamide] |
|  | 16.12 s⁻¹ | 3.56 |  | 4.85 µM |  | O=C(Nc1cccc(Cl)c1)c1sc(=S)n2c1[nH]c(=O)c1cc(Br)ccc12 [Compound 207, 7-bromo-N-(3-chlorophenyl)-5-oxo-1-thioxo-4,5-dihydro-1H-thiazolo[3,4-a]quinazoline-3-carboxamide] |
|  | 14.78 s⁻¹ | 4.37 |  | 3.82 µM |  | O=C(Nc1cccc(OC(F)(F)F)c1)c1sc(=S)n2c1[nH]c(=O)c1cc(Br)ccc12 [Compound 209, 7-bromo-5-oxo-1-thioxo-N-(3-(trifluoromethoxy)phenyl)-4,5-dihydro-1H-thiazolo[3,4-a]quinazoline-3-carboxamide] |
|  | 5.51 s⁻¹ | 3.83 |  | 12.3 µM |  | O=C(Nc1ccccc1)c1sc(=S)n2c1[nH]c(=O)c1cc(Br)ccc12 [Compound 107, 7-bromo-5-oxo-N-phenyl-1-thioxo-4,5-dihydro-1H-thiazolo[3,4-a]quinazoline-3-carboxamide] |
|  | 0.32 s⁻¹ | 1.16 |  |  |  | Cc1ccc2c(c1)c(=O)[nH]c1c(C(=O)Nc3ccccc3)sc(=S)n12 [Compound 105, 7-methyl-5-oxo-N-phenyl-1-thioxo-4,5-dihydro-1H-thiazolo[3,4-a]quinazoline-3-carboxamide] |
|  | 9.40 s⁻¹ | 3.68 |  | 4.6 µM |  | Cc1ccccc1NC(=O)c1sc(=S)n2c1[nH]c(=O)c1cc(Br)ccc12 [Compound 201, 7-bromo-5-oxo-1-thioxo-N-(o-tolyl)-4,5-dihydro-1H-thiazolo[3,4-a]quinazoline-3-carboxamide] |
|  | 0.38 s⁻¹ | 1.38 |  | 12.7 µM |  | O=C(O)c1sc(=S)n2c1[nH]c(=O)c1ccccc12 [Compound 3, 5-oxo-1-thioxo-4,5-dihydro-1H-thiazolo[3,4-a]quinazoline-3-carboxylic acid] |

| SMILES | Activity (ΔRFU normalized by activities of LDD175) [1] | Initial velocity of channel activation for 4 s (vi) at 6 μM [2] | Channel activity increase for 80 s (ΔRFU) at 6 μM [2] | activation effect on the BKCa channels at a single concentration [2] | EC50 [2] | BKCa activity [2] |
| --- | --- | --- | --- | --- | --- | --- |
| CC(=O)c1c(O)c(C)c(O)c(Cc2c(O)c3c(c(C(=O)/C=C/c4ccccc4)c2O)OC(C)(C)C=C3)c1O [rottlerin, reference compound] |  |  |  | significant activation effects |  |  |

From patent US20240398813A1, “PHARMACEUTICAL COMPOSITION FOR PREVENTING OR TREATING OVERACTIVE BLADDER” (GWANGJU INSTITUTE OF SCIENCE AND TECHNOLOGY, priority 2021, published 2024)
